Measurements: patent publication US20230278972A1, “SUBSTITUTED HALOALKYL SULFONANILIDE HERBICIDES” (FMC Corporation, priority 2020, published 2023)

Key:
Type in all cases: in vivo
kochia (Bassia scoparia) = assay: Test A1 postemergence, kochia; details: Postemergence
In short: (§1)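 Plants grown in pots of loam/sand mix; preemergence = soil-directed spray on seeded pots, postemergence = spray at 1–2 leaves, height 2–10 cm; test chemicals formulated in non-phytotoxic solvent with surfactant.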

[1] = tested on: barnyardgrass (Echinochloa crus-galli); assay: Test B1 flooded paddy test, barnyardgrass; details: 250 g ai/ha, Flood, applied to paddy water, 2-leaf stage, visually evaluated after 10 to 14 days
Source text: A dash (-) response means no test result.

[2] = tested on: Ryegrass, Italian (Italian ryegrass, Lolium multiflorum); assay: Test A1 postemergence, Ryegrass, Italian; details: Postemergence
In short: as §1

[3] = tested on: blackgrass (Alopecurus myosuroides); assay: Test A1 postemergence, blackgrass; details: Postemergence, 0 to 100 scale (0 no effect, 100 complete control)
In short: as §1

[4] = tested on: goosegrass (Eleusine indica); assay: Test A1 postemergence, goosegrass; details: Postemergence
In short: as §1

[5] = tested on: Oat, Wild (wild oat, Avena fatua); assay: Test A1 postemergence, Oat, Wild; details: Postemergence
In short: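 Both timings started from seed in a loam-sand blend. Preemergence pots got a directed soil application immediately; postemergence pots were sprayed when seedlings had one or two leaves and stood 2–10 cm. Each compound was prepared in a non-phytotoxic solvent plus surfactant.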

[6] = tested on: Oat, Wild (wild oat, Avena fatua); assay: Test A1 preemergence, Oat, Wild
In short: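 Herbicidal response was scored on plants treated either preemergence, by directed spray onto soil of a loam–sand blend after sowing, or postemergence on potted plants at the one- to two-leaf stage, 2–10 cm high. Test chemicals were carried in a non-phytotoxic solvent mix with surfactant.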

[7] = tested on: wheat (Triticum aestivum); assay: Test A1 postemergence, wheat; details: Postemergence
In short: as §1

[8] = 31 g ai/ha, 0 to 100 scale (0 no effect, 100 complete control), 10 days
[9] = 31 g ai/ha, 0 to 100 scale (0 no effect, 100 complete control)
[10] = 125 g ai/ha, 0 to 100 scale, 0 no effect, 100 complete control

Compound | Plant response rating, Kochia (kochia (Bassia scoparia); [8]) | Plant response rating, Kochia (kochia (Bassia scoparia); 125 g ai/ha, 0 to 100 scale) | Plant response rating, Barnyardgrass (0 to 100 scale, 0 is no effect, 100 is complete control) [1] | Plant response rating, Ryegrass, Italian [2, 8] | Plant response rating, Ryegrass, Italian ([2]; 125 g ai/ha, 0 to 100 scale) | Plant response rating, Blackgrass ([3]; 31 g ai/ha, 10 days) | Plant response rating, Blackgrass ([3]; 125 g ai/ha) | Plant response rating, Goosegrass [4, 8] | Plant response rating, Goosegrass ([4]; 125 g ai/ha, 0 to 100 scale) | Plant response rating, Oat, Wild [5, 8] | Plant response rating, Oat, Wild ([5]; 125 g ai/ha, 0 to 100 scale) | Plant response rating, Oat, Wild [6, 9] | Plant response rating, Oat, Wild [6, 10] | Plant response rating, Wheat [7, 8] | Plant response rating, Wheat ([7]; 125 g ai/ha, 0 to 100 scale)
COC1CCCN(C(=O)c2cc(NS(=O)(=O)C(F)(F)F)c(Cl)c(F)c2C)C1 (stereo not drawn) [Compound 334] | 10 | 40 | 15 | 0 | 0 | 0 | 0 | 0 | 0 | 0 | 0 | 10 | 20 | 0 | 0
Cc1c(NS(=O)(=O)C(F)(F)F)cc(C2=NOC3CCCC23)c(C)c1C (stereo not drawn) [Compound 335] | 10 | 60 | 95 | 0 | 30 | 0 | 10 | 0 | 10 | 0 | 0 | 0 | 30 | 0 | 0
COCC1CC(c2cc(N(COC(=O)C(C)(C)C)S(=O)(=O)C(F)(F)F)c(C)cc2C)=NO1 (stereo not drawn) [Compound 338] | 10 | 60 | 95 | 0 | 10 | 0 | 0 | 0 | 70 | 0 | 10 | 0 | 0 | 20 | 70
CCOC1CC(c2cc(N(COC(=O)C(C)(C)C)S(=O)(=O)C(F)(F)F)c(C)cc2C)=NO1 (stereo not drawn) [Compound 339] | 30 | 70 | 95 | 0 | 50 | 0 | 30 | 0 | 30 | 0 | 0 | 0 | 0 | 0 | 40
Cc1cc(C)c(C2=NOC3(C)CCCC23)cc1NS(=O)(=O)C(F)(F)F (stereo not drawn) [Compound 340] | 20 | 50 | 85 | 0 | 20 | 0 | 20 | 60 | 90 | 0 | 20 | 0 | 90 | 50 | 70
Cc1cc(C)c(N(COC(=O)C(C)(C)C)S(=O)(=O)C(F)(F)F)cc1C1=NOC2(C)CCCC12 (stereo not drawn) [Compound 341] | 20 | 30 | 95 | 0 | 0 | 0 | 0 | 0 | 60 | 0 | 20 | 0 | 0 | 0 | 70
CCC1ON=C(c2cc(NS(=O)(=O)C(F)(F)F)c(C)cc2C)C1CC (stereo not drawn) [Compound 343] | 20 | 60 | 85 | 20 | 80 | 10 | 30 | 40 | 90 | 0 | 50 | 0 | 70 | 30 | 60
CCC1ON=C(c2cc(N(COC(=O)C(C)(C)C)S(=O)(=O)C(F)(F)F)c(C)cc2C)C1CC (stereo not drawn) [Compound 344] | 20 | 60 | 95 | 30 | 40 | 0 | 50 | 0 | 30 | 20 | 30 | 0 | 10 | 40 | 70
CCC1ON=C(c2cc(N(C(=O)OCC(C)C)S(=O)(=O)C(F)(F)F)c(C)cc2C)C1CC (stereo not drawn) [Compound 345] | 30 | 80 | 95 | 20 | 60 | 20 | 40 | 0 | 70 | 20 | 40 | 20 | 10 | 30 | 60
